{"source": "patent US10968225B2", "about": "“Compounds and compositions for the treatment of cystic fibrosis” (Fondazione Istituto Italiano Di Tecnologia, priority 2017, dated 2021)", "note": "Structures can show the parent of a compound that is named as a salt."}
{"target": "T1, mutant CFTR (Homo sapiens, UniProt P13569, DEL508-508)", "T1 construct": "expressed in transfected cells", "T1 sequence (P13569 with tags, fused parts or gaps DEL508-508)": "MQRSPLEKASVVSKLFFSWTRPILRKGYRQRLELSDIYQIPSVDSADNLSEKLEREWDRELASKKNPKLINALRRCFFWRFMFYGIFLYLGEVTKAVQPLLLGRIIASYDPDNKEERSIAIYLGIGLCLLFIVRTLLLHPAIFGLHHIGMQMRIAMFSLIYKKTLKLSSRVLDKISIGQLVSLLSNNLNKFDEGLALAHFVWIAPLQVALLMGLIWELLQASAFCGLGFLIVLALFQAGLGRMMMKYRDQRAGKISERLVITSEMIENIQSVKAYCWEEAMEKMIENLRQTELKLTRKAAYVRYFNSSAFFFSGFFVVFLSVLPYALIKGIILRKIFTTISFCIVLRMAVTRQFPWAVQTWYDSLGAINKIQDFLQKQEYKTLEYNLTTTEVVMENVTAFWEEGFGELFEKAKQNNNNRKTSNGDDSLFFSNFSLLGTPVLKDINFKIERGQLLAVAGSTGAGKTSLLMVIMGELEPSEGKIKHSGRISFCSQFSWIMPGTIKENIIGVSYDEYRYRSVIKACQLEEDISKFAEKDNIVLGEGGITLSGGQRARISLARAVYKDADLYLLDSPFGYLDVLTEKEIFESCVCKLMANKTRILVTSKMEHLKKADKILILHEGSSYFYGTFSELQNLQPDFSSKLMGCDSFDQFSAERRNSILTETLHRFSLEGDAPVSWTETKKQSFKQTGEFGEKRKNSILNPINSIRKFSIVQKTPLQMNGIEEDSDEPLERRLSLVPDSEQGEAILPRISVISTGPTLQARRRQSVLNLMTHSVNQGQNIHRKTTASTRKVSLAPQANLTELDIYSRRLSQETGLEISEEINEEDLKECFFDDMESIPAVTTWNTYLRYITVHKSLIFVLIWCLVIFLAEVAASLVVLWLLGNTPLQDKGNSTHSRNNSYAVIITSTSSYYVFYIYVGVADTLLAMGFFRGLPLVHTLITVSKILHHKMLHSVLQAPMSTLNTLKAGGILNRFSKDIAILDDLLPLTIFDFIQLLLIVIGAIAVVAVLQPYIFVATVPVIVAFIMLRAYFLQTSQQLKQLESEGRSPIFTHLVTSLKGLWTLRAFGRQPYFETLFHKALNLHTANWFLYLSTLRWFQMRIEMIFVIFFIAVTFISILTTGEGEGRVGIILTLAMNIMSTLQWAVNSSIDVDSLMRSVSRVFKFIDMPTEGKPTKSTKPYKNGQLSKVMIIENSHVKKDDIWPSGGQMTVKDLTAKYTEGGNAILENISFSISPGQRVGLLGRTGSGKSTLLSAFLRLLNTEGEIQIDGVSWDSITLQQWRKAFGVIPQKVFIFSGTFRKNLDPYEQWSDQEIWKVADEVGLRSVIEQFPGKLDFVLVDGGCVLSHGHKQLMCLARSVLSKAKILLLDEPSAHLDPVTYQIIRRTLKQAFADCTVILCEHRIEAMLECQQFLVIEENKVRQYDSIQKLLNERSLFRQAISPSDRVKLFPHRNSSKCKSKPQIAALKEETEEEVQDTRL", "experiment": "Fluorescence (HS-YFP) assay for CFTR activity, corrector assay", "assay_type": "cell-based", "conditions": "CFBE41o- and FRT cells with stable expression of mutant CFTR, read-out: activity (EC50)", "units": {"EC50": "nM"}}
{"smiles": "COC(=O)c1ccc(S(=O)(=O)N2CCc3c(c(C(F)(F)F)nn3-c3cccc(C(=O)N(C)c4ccc5c(c4)OCO5)c3)C2)cc1", "note": "[Compound 055, Methyl 4-[[1-[3-[1,3-benzodioxol-5-yl(methyl)carbamoyl]phenyl]-3-(trifluoromethyl)-6,7-dihydro-4H-pyrazolo[4,3-c]pyridin-5-yl]sulfonyl]benzoate]", "EC50": "< 1000"}
{"smiles": "CNC(=O)N1CCc2c(c(C(F)(F)F)nn2-c2cccc(C(=O)N(C)c3ccc4c(c3)OCO4)c2)C1", "note": "[Compound 056, 1-[3-[1,3-Benzodioxol-5-yl(methyl)carbamoyl]phenyl]-N-methyl-3-(trifluoromethyl)-6,7-dihydro-4H-pyrazolo[4,3-c] pyridine-5-carboxamide]", "EC50": "< 1000"}
{"smiles": "CN(C(=O)c1cccc(-n2nc(C(F)(F)F)c3c2CCN(S(=O)(=O)c2ccc(C(=O)O)cc2)C3)c1)c1ccc2c(c1)OCO2", "note": "[Compound 057, 4-[[1-[3-[1,3-Benzodioxol-5-yl(methyl)carbamoyl]phenyl]-3-(trifluoromethyl)-6,7-dihydro-4H-pyrazolo[4,3-c]pyridin-5-yl]sulfonyl]benzoic acid]", "EC50": "1000 to 2000"}
{"smiles": "CN(C(=O)c1cccc(-n2nc(C(F)(F)F)c3c2CCN(C(=O)C(C)(C)O)C3)c1)c1ccc2c(c1)OCO2", "note": "[Compound 058, N-(1,3-Benzodioxol-5-yl)-3-[5-(2-hydroxy-2-methyl-propanoyl)-3-(trifluoromethyl)-6,7-dihydro-4H-pyrazolo[4,3-c]pyridin-1-yl]-N-methyl-benzamide]", "EC50": "< 1000"}
{"smiles": "COC(=O)c1cccc(S(=O)(=O)N2CCc3c(c(C(F)(F)F)nn3-c3cccc(C(=O)N(C)c4ccc5c(c4)OCO5)c3)C2)c1", "note": "[Compound 059, Methyl 3-[[1-[3-[1,3-benzodioxol-5-yl(methyl)carbamoyl]phenyl]-3-(trifluoromethyl)-6,7-dihydro-4H-pyrazolo[4,3-c]pyridin-5-yl]sulfonyl]benzoate]", "EC50": "< 1000"}
{"smiles": "COC(=O)c1ccccc1S(=O)(=O)N1CCc2c(c(C(F)(F)F)nn2-c2cccc(C(=O)N(C)c3ccc4c(c3)OCO4)c2)C1", "note": "[Compound 060, Methyl 2-[[1-[3-[1,3-benzodioxol-5-yl(methyl)carbamoyl]phenyl]-3-(trifluoromethyl)-6,7-dihydro-4H-pyrazolo[4,3-c]pyridin-5-yl]sulfonyl]benzoate]", "EC50": "< 1000"}
{"smiles": "CN(C(=O)c1cccc(-n2nc(C(F)(F)F)c3c2CCN(S(=O)(=O)c2cccc(C(=O)O)c2)C3)c1)c1ccc2c(c1)OCO2", "note": "[Compound 061, 3-[[1-[3-[1,3-Benzodioxol-5-yl(methyl)carbamoyl]phenyl]-3-(trifluoromethyl)-6,7-dihydro-4H-pyrazolo[4,3-c]pyridin-5-yl]sulfonyl]benzoic acid]", "EC50": "> 2000"}
{"smiles": "CN(C(=O)c1cccc(-n2nc(C(F)(F)F)c3c2CCN(S(=O)(=O)c2ccccc2C(=O)O)C3)c1)c1ccc2c(c1)OCO2", "note": "[Compound 062, 2-[[1-[3-[1,3-Benzodioxol-5-yl(methyl)carbamoyl]phenyl]-3-(trifluoromethyl)-6,7-dihydro-4H-pyrazolo[4,3-c]pyridin-5-yl]sulfonyl]benzoic acid]", "EC50": "> 2000"}
{"smiles": "CN(C(=O)c1cccc(-n2nc(C(F)(F)F)c3c2CCN(S(=O)(=O)c2ccc(C#N)cc2)C3)c1)c1ccc2c(c1)OCO2", "note": "[Compound 063, N-(1,3-Benzodioxol-5-yl)-3-[5-(4-cyanophenyl)sulfonyl-3-(trifluoromethyl)-6,7-dihydro-4H-pyrazolo[4,3-c]pyridin-1-yl]-N-methyl-benzamide]", "EC50": "< 1000"}
{"smiles": "Cc1nc(S(=O)(=O)N2CCc3c(c(C(F)(F)F)nn3-c3cccc(C(=O)N(C)c4ccc5c(c4)OCO5)c3)C2)cn1C", "note": "[Compound 064, N-(1,3-Benzodioxol-5-yl)-3-[5-(1,2-dimethylimidazol-4-yl)sulfonyl-3-(trifluoromethyl)-6,7-dihydro-4H-pyrazolo[4,3-c]pyridin-1-yl]-N-methyl-benzamide]", "EC50": "< 1000"}
{"smiles": "CN(c1ccc2c(c1)OCO2)S(=O)(=O)c1cccc(-n2nc(C(F)(F)F)c3c2CCN(C(=O)OC(C)(C)C)C3)c1", "note": "[Compound 065, tert-Butyl 1-[3-[1,3-benzodioxol-5-yl(methyl)sulfamoyl]phenyl]-3-(trifluoromethyl)-6,7-dihydro-4H-pyrazolo[4,3-c]pyridine-5-carboxylate]", "EC50": "> 2000"}
{"smiles": "CN(c1ccc2c(c1)OCO2)S(=O)(=O)c1cccc(-n2nc(C(F)(F)F)c3c2CCNC3)c1", "note": "[Compound 066, N-(1,3-Benzodioxol-5-yl)-N-methyl-3-[3-(trifluoromethyl)-4,5,6,7-tetrahydropyrazolo[4,3-c]pyridin-1-yl] benzenesulfonamide hydrochloride]", "EC50": "< 1000"}
{"smiles": "Cc1noc(C)c1S(=O)(=O)N1CCc2c(c(C(F)(F)F)nn2-c2cccc(C(=O)N(C)c3ccc4c(c3)OCO4)c2)C1", "note": "[Compound 067, N-(1,3-benzodioxol-5-yl)-3-[5-(3,5-dimethylisoxazol-4-yl)sulfonyl-3-(trifluoromethyl)-6,7-dihydro-4H-pyrazolo[4,3-c]pyridin-1-yl]-N-methyl-benzamide]", "EC50": "< 1000"}
{"smiles": "COCCS(=O)(=O)N1CCc2c(c(C(F)(F)F)nn2-c2cccc(C(=O)N(C)c3ccc4c(c3)OCO4)c2)C1", "note": "[Compound 068, N-(1,3-benzodioxol-5-yl)-3-[5-(2-methoxyethylsulfonyl)-3-(trifluoromethyl)-6,7-dihydro-4H-pyrazolo[4,3-c]pyridin-1-yl]-N-methyl-benzamide]", "EC50": "< 1000"}
{"smiles": "Cc1n[nH]c(C)c1S(=O)(=O)N1CCc2c(c(C(F)(F)F)nn2-c2cccc(C(=O)N(C)c3ccc4c(c3)OCO4)c2)C1", "note": "[Compound 069, N-(1,3-Benzodioxol-5-yl)-3-[5-[(3,5-dimethyl-4H-pyrazol-4-yl)sulfonyl]-3-(trifluoromethyl)-6,7-dihydro-4H-pyrazolo[4,3-c]pyridin-1-yl]-N-methyl-benzamide]", "EC50": "< 1000"}
{"smiles": "COC(=O)c1ccc(S(=O)(=O)N2C3CCC2c2c(C(F)(F)F)nn(-c4cccc(C(=O)N(C)c5ccc6c(c5)OCO6)c4)c2C3)cc1", "note": "(centres unmarked) [Compound 070, Methyl 4-((1-(3-(benzo[d][1,3]dioxol-5-yl(methyl)carbamoyl)phenyl)-3-(trifluoromethyl)-1,4,5,6,7,8-hexahydro-4,7-epiminocyclohepta[c]pyrazol-9-yl)sulfonyl)benzoate]", "EC50": "< 1000"}
{"smiles": "CN1CCc2c(c(C(F)(F)F)nn2-c2cccc(S(=O)(=O)N(C)c3ccc4c(c3)OCO4)c2)C1", "note": "[Compound 071, N-(1,3-Benzodioxol-5-yl)-N-methyl-3-[5-methyl-3-(trifluoromethyl)-6,7-dihydro-4H-pyrazolo[4,3-c]pyridin-1-yl]benzenesulfonamide]", "EC50": "> 2000"}
{"smiles": "CN(C(=O)c1cccc(-n2nc(C(F)(F)F)c3c2CN(C(=O)C(C)(C)C)CC3)c1)c1ccc2c(c1)OCO2", "note": "[Compound 072, N-(1,3-Benzodioxol-5-yl)-3-[6-(2,2-dimethylpropanoyl)-3-(trifluoromethyl)-5,7-dihydro-4H-pyrazolo[3,4-c]pyridin-1-yl]-N-methyl-benzamide]", "EC50": "< 1000"}
{"smiles": "COC(=O)c1ccc(S(=O)(=O)N2CCc3c(C(F)(F)F)nn(-c4cccc(C(=O)N(C)c5ccc6c(c5)OCO6)c4)c3C2)cc1", "note": "[Compound 075, Methyl 4-[[1-[3-[1,3-benzodioxol-5-yl(methyl)carbamoyl]phenyl]-3-(trifluoromethyl)-5,7-dihydro-4H-pyrazolo[3,4-c]pyridin-6-yl]sulfonyl]benzoate]", "EC50": "< 1000"}
{"smiles": "CN(C(=O)c1cccc(-n2nc(C(F)(F)F)c3c2CN(S(=O)(=O)c2ccc(C(=O)O)cc2)CC3)c1)c1ccc2c(c1)OCO2", "note": "[Compound 077, 4-[[1-[3-[1,3-Benzodioxol-5-yl(methyl)carbamoyl]phenyl]-3-(trifluoromethyl)-5,7-dihydro-4H-pyrazolo[3,4-c]pyridin-6-yl]sulfonyl]benzoic acid]", "EC50": "1000 to 2000"}
{"smiles": "Cc1nc2ccc(NC(=O)c3cccc(-n4nc(C(F)(F)F)c5c4CCN(C(=O)C(C)(C)C)C5)c3)cn2n1", "note": "[Compound 078, 3-[5-(2,2-Dimethylpropanoyl)-3-(trifluoromethyl)-6,7-dihydro-4Hpyrazolo[4,3-c]pyridin-1-yl]-N-(2-methyl-[1,2,4]triazolo[1,5-a]pyridin-6-yl)benzamide]", "EC50": "> 2000"}
{"smiles": "Cc1n[nH]c2ncc(NC(=O)c3cccc(-n4nc(C(F)(F)F)c5c4CCN(C(=O)C(C)(C)C)C5)c3)cc12", "note": "[Compound 079, 3-[5-(2,2-Dimethylpropanoyl)-3-(trifluoromethyl)-6,7-dihydro-4Hpyrazolo[4,3-c]pyridin-1-yl]-N-(3-methyl-1H-pyrazolo[3,4-b]pyridin-5-yl)benzamide]", "EC50": "> 2000"}
{"smiles": "COc1ccc(NC(=O)c2cccc(-n3nc(C(F)(F)F)c4c3CCN(C(=O)C(C)(C)C)C4)c2)cn1", "note": "[Compound 080, 3-[5-(2,2-Dimethylpropanoyl)-3-(trifluoromethyl)-6,7-dihydro-4Hpyrazolo[4,3-c]pyridin-1-yl]-N-(6-methoxy-3-pyridyl)benzamide]", "EC50": "> 2000"}
{"smiles": "COc1ncc(NC(=O)c2cccc(-n3nc(C(F)(F)F)c4c3CCN(C(=O)C(C)(C)C)C4)c2)cn1", "note": "[Compound 081, 3-[5-(2,2-Dimethylpropanoyl)-3-(trifluoromethyl)-6,7-dihydro-4H-pyrazolo[4,3-c]pyridin-1-yl]-N-(2-methoxypyrimidin-5-yl)benzamide]", "EC50": "> 2000"}
{"smiles": "Cc1nn(CCC(=O)OC(C)(C)C)c(C)c1S(=O)(=O)N1CCc2c(c(C(F)(F)F)nn2-c2cccc(C(=O)N(C)c3ccc4c(c3)OCO4)c2)C1", "note": "[Compound 082, tert-Butyl 3-[4-[[1-[3-[1,3-benzodioxol-5-yl(methyl)carbamoyl]phenyl]-3-(trifluoromethyl)-6,7-dihydro-4H-pyrazolo[4,3-c]pyridin-5-yl]sulfonyl]-3,5-dimethyl-pyrazol-1-yl]propanoate]", "EC50": "< 1000"}
{"smiles": "COc1cc(NC(=O)c2cccc(-n3nc(C(F)(F)F)c4c3CCN(C(=O)C(C)(C)C)C4)c2)ccn1", "note": "[Compound 083, 3-[5-(2,2-Dimethylpropanoyl)-3-(trifluoromethyl)-6,7-dihydro-4Hpyrazolo[4,3-c]pyridin-1-yl]-N-(2-methoxy-4-pyridyl)benzamide]", "EC50": "> 2000"}
